Data as given in PubChem BioAssay (NCI).
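Results reflect a 48-hour exposure of cells in 96-well plates to compound at five concentrations. TGI denotes the concentration required for complete inhibition of growth.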

Experiments:
Assay in all cases: NCI anticancer screen, dose series, 48 h
A498 renal = system: A498 renal
COLO 205 colon = system: COLO 205 colon
EKVX NSCLC = system: EKVX NSCLC
OVCAR-3 ovarian = system: OVCAR-3 ovarian
PC-3 prostate = system: PC-3 prostate
SF-268 CNS = system: SF-268 CNS
SK-MEL-2 melanoma = system: SK-MEL-2 melanoma
SK-MEL-28 melanoma = system: SK-MEL-28 melanoma
T-47D breast = system: T-47D breast
BT-549 breast = system: BT-549 breast

Row | Compound | TGI (A498 renal) [µM] | TGI (COLO 205 colon) [µM] | TGI (EKVX NSCLC) [µM] | TGI (OVCAR-3 ovarian) [µM] | TGI (PC-3 prostate) [µM] | TGI (SF-268 CNS) [µM] | TGI (SK-MEL-2 melanoma) [µM] | TGI (SK-MEL-28 melanoma) [µM] | TGI (T-47D breast) [µM] | TGI (BT-549 breast) [µM]
1 | COc1ccc(C(=O)/C=C/SC(=NC#N)SC)cc1 | 60.7 | 38.8 | > 100 | 37.2 | > 100 | 70.3 | 43.8 | 96.7 | 47.3 | –
2 | CN(C)/N=N/c1nc2c(c(=O)n(C)c(=O)n2C)n1CC1CO1 (stereo not drawn) | – | 27.3 | 57.9 | 31.4 | 56.4 | 33.6 | 23.1 | 59.7 | 80 | 52.7
3 | CCOC(=O)C(NC(=O)c1cccc(Cl)c1)(Nc1cccc(C)c1)C(F)(F)F (stereo not drawn) | – | 36.2 | 63.1 | – | 43.6 | 58.9 | 31.8 | 35.1 | 54.5 | 26.1
4 | CSc1ncc2c(n1)-c1ccccc1OC2NC1CC1 (stereo not drawn) | 28 | > 100 | > 100 | > 100 | > 100 | > 100 | > 100 | – | 91.7 | > 100
5 | CCCn1cc2c3c(cccc31)C1C=C(C)CN(C)C1C2 (stereo not drawn) | 37.8 | 33.3 | 48 | 52.6 | – | 47.2 | 63.4 | 49.9 | – | –
6 | O=C1CSC(c2c[nH]c3ccccc23)N1c1ccc(Cl)cc1Cl (stereo not drawn) | – | > 100 | > 100 | > 100 | > 100 | > 100 | – | > 100 | > 100 | > 100
7 | Oc1ccccc1/C=N/N1C(=S)N(C23CC4CC(CC(C4)C2)C3)C(=Nc2ccccc2)C1=Nc1ccccc1 | – | > 100 | > 100 | > 100 | > 100 | > 100 | > 100 | > 100 | > 100 | > 100
8 | Cc1nc2c(=O)n(-c3ccccc3)c(=O)n(-c3ccccc3)c2o1 | > 100 | > 100 | > 100 | > 100 | > 100 | > 100 | > 100 | – | > 100 | > 100
9 | c1cncc(CSc2nc3ccccc3nc2-c2cccs2)c1 | – | > 100 | > 100 | 83.3 | – | > 100 | > 100 | > 100 | – | –
10 | Nc1c(N2CCOCC2)c(=O)nc2[nH]/c(=C\c3ccccc3O)c(=O)n12 | > 100 | > 100 | > 100 | – | – | > 100 | – | > 100 | > 100 | –
11 | C=CN(C=C)C(=O)Cn1cc(-c2ccccc2)nn1 | – | > 100 | > 100 | – | > 100 | > 100 | > 100 | > 100 | – | > 100
12 | O=C(c1ccc([N+](=O)[O-])cc1)N1CCCC1 | > 100 | – | > 100 | > 100 | > 100 | > 100 | – | > 100 | > 100 | > 100
13 | CCN(CC)C(=S)N/N=C(/c1ccccc1)c1ccccn1 | 2.38 | 0.0942 | > 56.7 | 32.5 | > 100 | – | 26.2 | > 79.7 | – | > 100
